This is an account of results in PMC12291119, “In Vitro Selection of Cyclized, Glycosylated Peptide Antigens That Tightly Bind HIV High Mannose Patch Antibodies” (ACS Central Science, 2025).

Numbered stars: 1 amine (or outer) side, 2 acyl side, 3 side chain; on linkers, the order of the positions; unused ones are H or OH. Bridge positions count the residues as written; N and C are the ends. Square brackets hold non-standard residues; d marks the D form. Ends that are not written are not given here. * marks the point of attachment. X1 = CC(=O)N[C@@H]1[C@@H](O)[C@H](O[C@@H]2O[C@H](CO)[C@@H](O[C@@H]3O[C@H](CO[C@H]4O[C@H](CO[C@H]5O[C@H](CO)[C@@H](O)[C@H](O)[C@@H]5O[C@H]5O[C@H](CO)[C@@H](O)[C@H](O)[C@@H]5O)[C@@H](O)[C@H](O[C@H]5O[C@H](CO)[C@@H](O)[C@H](O)[C@@H]5O[C@H]5O[C@H](CO)[C@@H](O)[C@H](O)[C@@H]5O)[C@@H]4O)[C@@H](O)[C@H](O[C@H]4O[C@H](CO)[C@@H](O)[C@H](O)[C@@H]4O[C@H]4O[C@H](CO)[C@@H](O)[C@H](O)[C@@H]4O[C@H]4O[C@H](CO)[C@@H](O)[C@H](O)[C@@H]4O)[C@@H]3O)[C@H](O)[C@H]2NC(C)=O)[C@@H](CO)O[C@H]1n1cc(CC[C@H](N[*:1])C(=O)[*:2])nn1; Biotin = O=C1N[C@H]2[C@H](CS[C@H]2CCCCC(=O)*)N1; mXylylene = c1cc(C[*:1])cc(C[*:2])c1

One test deals with PGT128. The experiment in a line: Biolayer interferometry (BLI) of immobilized biotinylated glycopeptides binding to PGT128. To be noted: for fold decrease in PGT128 binding relative to parent H1 glycopeptide: BLI KD compared with H1 (peptide 1). An excerpt: 6 Biolayer interferometry (BLI) measurement of glycopeptides immobilized via biotin on a streptavidin biosensor binding to PGT128. All sensorgrams represent a series of 2-fold dilutions of antibody with highest concentration tested labeled. All sequences followed by GSGSGK(Biotin). M denotes homopropargylglycine, modified by CuAAC as in Figure .
C. Binding Analysis of PGT Antibody-Peptide/Glycopeptide Interactions by Biolayer Interferometry
1. Biolayer Interferometry Protocol
Biotinylated glycopeptide was loaded onto a streptavidin biosensor in 250 µL buffer 1 (500 to 1000 nM […] glycopeptide in 20 mM Tris pH 7.5, 150 mM NaCl, 0.2 mg/ml BSA, 0.02% (v/v) Tween-20) for 120s in a […] of black Eppendorf tube. The sensor was then washed with 250 µL of blank buffer 1 for 120 seconds in a […] black Eppendorf tube. The sensor was washed with 250 µL buffer 3 (10 mM glycine HCl, pH 2.5) for 120 seconds in […] of black Eppendorf tube and followed by 250 µL of blank buffer 1 for 120 seconds in a […] black Eppendorf tube to immobilize glycopeptides in a range of 0.5 nm to 2 nm response. The sensor was then equilibrated with 250 µL of buffer 2 (20 mM Tris pH 7.5, 150 mM NaCl, 2 mg/ml BSA, 0.1% (v/v) Tween-20) for 120 seconds in a […] of black Eppendorf tube PGT antibody (prepared in buffer 2) was associated at several concentrations for 300 seconds in 4 µL drop holder followed by dissociation into blank 250 µL of buffer 2 for 300 seconds in […] of black Eppendorf tube. After each dissociation sensor was regenerated to remove the remaining antibody by treatment with 250 µL of buffer 3 for 120 seconds, followed by 120 seconds of wash with 250 µL buffer 1 and re-equilibration with 250 µL buffer 2 in […] of black Eppendorf tube. Throughout the experiment, the shaker rate was set at 2200 rpm. Data were fit globally to a 1:1 binding model.
2. BLI Sensorgram of H1-QQQ-non-glycosylated Peptide with PGT128
Figure S33. […]

The next test concerns the target HIV Env. To be noted: read-out: reported affinities of PGT122 for HIV Env; ref number not given; cited from earlier work. The source says:
We performed preliminary binding assays for those sequences and others using translated peptides with or without attached glycans. No sequ ...

A further test has as its system HIV pseudovirus panel. To be noted: ref number not given, cited from earlier work. The source says: We have sought to mimic HMP epitopes without using either the entire Env protein, which contains a plethora of “distracting” epitopes that easily elicit off-target antibodies; − or short glycopeptides directly derived from the Env sequence, which may not sufficiently recapitulate the HMP structure without the conformational support of the remaining Env protein. Aiming to design glycostructures that better mimic the glycan presentation in the HMP, we have pioneered various techniques for the directed evolution of DNA, , RNA, F-RNA, or peptide-supported , glycan clusters.

Setting [1] is: diverse/representative HIV pseudovirus panel.

As to “ALFKPYPKIGDIRKARC[X1]LQHTLHHRTNKQPSYRRRLKTLIPLFRRC[X1]LGSGSGK(Biotin)-NH2 (linker 17-47 via mXylylene; C-terminus assumed) [compound 2]”, the Kd at PGT128 (BLI, peptide immobilized via biotin on streptavidin biosensor, 2-fold dilutions of PGT128 in 20 mM Tris pH 7.5, 150 mM NaCl, 2 mg/ml BSA, 0.1% Tween-20, 300 s association, 300 s dissociation, global 1:1 fit) came to 16.9 nM. Consider “AYTEKHNGIGDIRPAICQNSKNQNHRCNHYQIKLYIH[X1]L[X1]RLPHNYRNSGSGSGK(Biotin)-NH2 (linker 17-27 via mXylylene; C-terminus assumed) [peptide 3]”, for which, in the test with PGT128, the “fold decrease in PGT128 binding relative to parent H1 glycopeptide” value is about 2 fold. As to “AYTEKHNGIGDIRPAIC[X1]NSKNQNHRCNHYQIKLYIHQLQRLPHNYRNSGSGSGK(Biotin)-NH2 (linker 17-27 via mXylylene; C-terminus assumed) [peptide 4]”, the “fold decrease in PGT128 binding relative to parent H1 glycopeptide” value in the test on PGT128 is about 40 fold.

Regarding “PGT122: HIV bnAb binding the High Mannose Patch”, the Kd at HIV Env is 100 to 174 nM. Moreover, in the test on HIV pseudovirus panel (setting [1]), the “breadth (fraction of HIV pseudovirus panel neutralized)” value is recorded as 65% and the “median IC50” value was 0.05 µg/mL. Further, the “potency (EC50)” value in the test with HIV pseudovirus panel (neutralization potency) is 0.05 µg/mL.
